Assay results: ChEMBL document CHEMBL4507299, “Data for DCP probe PF-04554878” (2021)

Legend:
[1] = target: Phosphatidylinositol 4-phosphate 3-kinase C2 domain-containing subunit beta (Homo sapiens) (UniProt O00750)
[2] = target: STE20/SPS1-related proline-alanine-rich protein kinase (Homo sapiens) (UniProt Q9UEW8)
[3] = target: Phosphorylase b kinase gamma catalytic chain, skeletal muscle/heart isoform (Homo sapiens) (UniProt Q16816)
[4] = target: TRAF2 and NCK-interacting protein kinase (Homo sapiens) (UniProt Q9UKE5)
[5] = target: Protein-tyrosine kinase 6 (Homo sapiens) (UniProt Q13882)
[6] = target: Macrophage-stimulating protein receptor (Homo sapiens) (UniProt Q04912)
[7] = target: Protein kinase C theta type (Homo sapiens) (UniProt Q04759)
[8] = target: Serine/threonine-protein kinase NIM1 (Homo sapiens) (UniProt Q8IY84)
[9] = target: Ribosomal protein S6 kinase alpha-2 (Homo sapiens) (UniProt Q15349)
[10] = target: Vascular endothelial growth factor receptor 1 (Homo sapiens, UniProt P17948)
[11] = system: Epidermal growth factor receptor (Homo sapiens), P00533 [UNDEFINED MUTATION]
[12] = target: Serine/threonine-protein kinase tousled-like 1 (Homo sapiens) (UniProt Q9UKI8)
[13] = target: Dual specificity mitogen-activated protein kinase kinase 4 (Homo sapiens) (UniProt P45985)
[14] = system: Tyrosine-protein kinase ABL1 (Homo sapiens), P00519 [H396P]
[15] = target: Dual specificity mitogen-activated protein kinase kinase 7 (Homo sapiens) (UniProt O14733)
[16] = target: Ribosomal protein S6 kinase alpha-1 (Homo sapiens) (UniProt Q15418)
[17] = target: T1, Aurora kinase A (Homo sapiens) (UniProt O14965)
T1 sequence (whole entry): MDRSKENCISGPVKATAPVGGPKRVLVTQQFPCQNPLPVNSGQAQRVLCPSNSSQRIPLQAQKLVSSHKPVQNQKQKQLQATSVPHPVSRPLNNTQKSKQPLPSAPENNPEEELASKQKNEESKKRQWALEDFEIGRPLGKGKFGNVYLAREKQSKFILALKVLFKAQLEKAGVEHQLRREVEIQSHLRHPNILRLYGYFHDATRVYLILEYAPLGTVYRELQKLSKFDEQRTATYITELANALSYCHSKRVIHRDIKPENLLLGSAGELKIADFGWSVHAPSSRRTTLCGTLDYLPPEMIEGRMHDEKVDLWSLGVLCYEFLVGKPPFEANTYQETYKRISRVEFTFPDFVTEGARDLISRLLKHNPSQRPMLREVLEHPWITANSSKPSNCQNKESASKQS

[18] = target: Cyclin-dependent kinase 5 (Homo sapiens) (UniProt Q00535)
[19] = target: GABA-A receptor; anion channel (Rattus norvegicus) (UniProt O09028+P15431+P18506+P18508+P19969+P20236+P23574+P23576+P28471+P28473+P30191+P62813+P63079+P63138+Q91ZM7+Q9ES14); settings: Compound concentration 10.0 uM
Rattus norvegicus = species on record: Rattus norvegicus; settings: Compound concentration 10.0 uM
[20] = target: Tyrosine-protein kinase ITK/TSK (Homo sapiens) (UniProt Q08881)
[21] = target: Casein kinase I isoform alpha-like (Homo sapiens) (UniProt Q8N752)
[22] = target: Alpha-2C adrenergic receptor (Homo sapiens) (UniProt P18825); settings: Compound concentration 10.0 uM
[23] = target: Serine/threonine-protein kinase PAK 4 (Homo sapiens) (UniProt O96013)
[24] = target: Protein kinase C eta type (Homo sapiens) (UniProt P24723)
[25] = target: Mitogen-activated protein kinase kinase kinase 3 (Homo sapiens) (UniProt Q99759)
[26] = target: AP2-associated protein kinase 1 (Homo sapiens) (UniProt Q2M2I8)
[27] = target: Casein kinase I isoform gamma-1 (Homo sapiens) (UniProt Q9HCP0)
[28] = target: Calcium/calmodulin-dependent protein kinase kinase 1 (Homo sapiens) (UniProt Q8N5S9)
[29] = target: Dual specificity mitogen-activated protein kinase kinase 6 (Homo sapiens) (UniProt P52564)
[30] = target: Ribosomal protein S6 kinase alpha-6 (Homo sapiens) (UniProt Q9UK32)
[31] = target: Cyclin-dependent kinase 8 (Homo sapiens) (UniProt P49336)
[32] = target: Serine/threonine-protein kinase D1 (Homo sapiens) (UniProt Q15139)
[33] = system: Phosphatidylinositol 4,5-bisphosphate 3-kinase catalytic subunit alpha isoform (Homo sapiens), P42336 [I800L]
[34] = target: Bone morphogenetic protein receptor type-1B (Homo sapiens) (UniProt O00238)
[35] = system: Proto-oncogene tyrosine-protein kinase receptor Ret (Homo sapiens), P07949 [V804L]
[36] = target: Tyrosine-protein kinase CSK (Homo sapiens) (UniProt P41240)
[37] = target: Dual serine/threonine and tyrosine protein kinase (Homo sapiens) (UniProt Q6XUX3)
[38] = Compound concentration 100.0 nM
[39] = Compound concentration 1000.0 nM

Chain of Vascular endothelial growth factor receptor 1 (P17948 whole entry): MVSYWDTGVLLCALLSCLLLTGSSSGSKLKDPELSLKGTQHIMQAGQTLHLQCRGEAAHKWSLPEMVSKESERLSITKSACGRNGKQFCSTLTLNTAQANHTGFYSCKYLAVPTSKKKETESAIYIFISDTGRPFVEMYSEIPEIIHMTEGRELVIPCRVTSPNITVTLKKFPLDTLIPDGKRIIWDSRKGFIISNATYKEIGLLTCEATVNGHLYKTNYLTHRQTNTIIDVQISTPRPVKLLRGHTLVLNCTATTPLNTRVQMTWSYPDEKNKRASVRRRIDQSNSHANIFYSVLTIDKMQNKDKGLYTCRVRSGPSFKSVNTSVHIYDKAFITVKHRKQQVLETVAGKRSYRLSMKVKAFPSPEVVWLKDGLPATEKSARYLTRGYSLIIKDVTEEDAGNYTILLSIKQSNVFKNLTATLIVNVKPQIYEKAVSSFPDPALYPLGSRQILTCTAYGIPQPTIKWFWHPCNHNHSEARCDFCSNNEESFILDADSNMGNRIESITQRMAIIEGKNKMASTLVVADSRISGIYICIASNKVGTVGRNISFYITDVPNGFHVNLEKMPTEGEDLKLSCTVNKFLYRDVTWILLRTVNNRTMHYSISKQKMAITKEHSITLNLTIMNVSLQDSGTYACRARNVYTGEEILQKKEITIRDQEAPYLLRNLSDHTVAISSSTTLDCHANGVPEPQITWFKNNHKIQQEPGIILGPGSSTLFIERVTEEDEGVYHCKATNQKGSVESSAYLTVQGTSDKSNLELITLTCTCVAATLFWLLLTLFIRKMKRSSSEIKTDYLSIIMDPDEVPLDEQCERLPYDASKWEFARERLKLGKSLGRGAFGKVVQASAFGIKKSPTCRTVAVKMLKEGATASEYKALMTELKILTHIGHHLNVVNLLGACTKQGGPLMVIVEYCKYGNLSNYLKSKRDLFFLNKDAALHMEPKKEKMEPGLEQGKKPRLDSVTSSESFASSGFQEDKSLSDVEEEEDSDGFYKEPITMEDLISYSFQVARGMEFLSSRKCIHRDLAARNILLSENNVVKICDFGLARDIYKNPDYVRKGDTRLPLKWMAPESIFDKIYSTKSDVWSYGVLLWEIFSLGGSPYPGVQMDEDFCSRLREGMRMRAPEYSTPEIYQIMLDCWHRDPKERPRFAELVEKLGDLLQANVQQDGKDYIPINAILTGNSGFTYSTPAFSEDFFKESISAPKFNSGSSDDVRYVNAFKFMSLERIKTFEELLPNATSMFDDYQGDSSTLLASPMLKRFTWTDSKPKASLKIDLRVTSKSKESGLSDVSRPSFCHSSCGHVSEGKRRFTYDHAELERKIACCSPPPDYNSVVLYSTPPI
Chain of Ribosomal protein S6 kinase alpha-6 (Homo sapiens) (Q9UK32 whole entry): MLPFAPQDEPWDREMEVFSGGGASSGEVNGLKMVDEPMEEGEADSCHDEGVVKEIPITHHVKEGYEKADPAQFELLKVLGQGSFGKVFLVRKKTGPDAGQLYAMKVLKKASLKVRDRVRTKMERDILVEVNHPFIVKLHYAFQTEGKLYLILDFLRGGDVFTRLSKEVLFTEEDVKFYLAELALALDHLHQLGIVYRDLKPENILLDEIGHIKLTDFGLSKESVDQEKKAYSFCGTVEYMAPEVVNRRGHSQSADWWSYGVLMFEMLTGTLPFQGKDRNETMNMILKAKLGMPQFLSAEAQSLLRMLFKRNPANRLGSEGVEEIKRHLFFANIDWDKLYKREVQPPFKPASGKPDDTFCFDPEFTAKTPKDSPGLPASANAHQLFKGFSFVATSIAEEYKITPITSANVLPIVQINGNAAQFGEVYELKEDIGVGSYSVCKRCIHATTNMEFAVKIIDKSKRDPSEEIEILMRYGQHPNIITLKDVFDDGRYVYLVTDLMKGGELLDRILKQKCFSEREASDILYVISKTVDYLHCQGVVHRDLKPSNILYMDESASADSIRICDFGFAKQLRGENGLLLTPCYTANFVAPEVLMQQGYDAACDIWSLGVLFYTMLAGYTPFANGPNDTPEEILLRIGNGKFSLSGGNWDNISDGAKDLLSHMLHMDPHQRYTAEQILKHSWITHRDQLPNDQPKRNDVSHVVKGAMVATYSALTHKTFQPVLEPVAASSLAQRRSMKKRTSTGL
Chain of Phosphatidylinositol 4,5-bisphosphate 3-kinase catalytic subunit alpha isoform (Homo sapiens), P42336 [I800L] (P42336 whole entry I800L, canonical isoform): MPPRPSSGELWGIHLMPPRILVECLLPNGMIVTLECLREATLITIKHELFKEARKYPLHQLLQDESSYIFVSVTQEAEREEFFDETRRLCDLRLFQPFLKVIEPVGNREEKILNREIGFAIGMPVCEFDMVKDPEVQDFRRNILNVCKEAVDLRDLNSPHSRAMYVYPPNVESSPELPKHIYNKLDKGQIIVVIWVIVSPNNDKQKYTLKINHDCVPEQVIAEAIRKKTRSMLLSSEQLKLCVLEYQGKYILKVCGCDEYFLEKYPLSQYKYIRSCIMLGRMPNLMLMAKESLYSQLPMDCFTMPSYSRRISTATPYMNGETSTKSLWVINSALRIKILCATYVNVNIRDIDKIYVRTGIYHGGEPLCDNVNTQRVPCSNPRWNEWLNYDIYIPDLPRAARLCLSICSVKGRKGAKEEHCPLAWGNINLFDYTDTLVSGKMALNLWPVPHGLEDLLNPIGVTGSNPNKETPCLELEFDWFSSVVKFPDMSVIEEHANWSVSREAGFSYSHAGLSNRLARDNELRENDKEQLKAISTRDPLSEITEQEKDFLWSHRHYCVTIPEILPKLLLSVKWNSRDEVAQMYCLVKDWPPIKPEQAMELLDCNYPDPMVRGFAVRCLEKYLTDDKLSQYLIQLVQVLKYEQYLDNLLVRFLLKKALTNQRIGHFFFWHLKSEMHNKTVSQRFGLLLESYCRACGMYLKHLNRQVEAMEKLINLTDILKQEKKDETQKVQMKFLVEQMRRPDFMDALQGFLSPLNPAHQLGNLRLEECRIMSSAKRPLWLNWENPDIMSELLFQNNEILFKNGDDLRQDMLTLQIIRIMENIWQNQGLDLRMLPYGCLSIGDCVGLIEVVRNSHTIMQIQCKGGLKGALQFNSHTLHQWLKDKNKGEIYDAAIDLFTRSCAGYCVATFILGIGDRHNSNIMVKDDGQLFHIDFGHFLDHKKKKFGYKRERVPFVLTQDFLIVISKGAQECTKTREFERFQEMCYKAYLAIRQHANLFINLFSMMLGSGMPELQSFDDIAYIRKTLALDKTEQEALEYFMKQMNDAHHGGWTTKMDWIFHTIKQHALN
Chain of Cyclin-dependent kinase 5 (Homo sapiens) (Q00535 whole entry, looked up): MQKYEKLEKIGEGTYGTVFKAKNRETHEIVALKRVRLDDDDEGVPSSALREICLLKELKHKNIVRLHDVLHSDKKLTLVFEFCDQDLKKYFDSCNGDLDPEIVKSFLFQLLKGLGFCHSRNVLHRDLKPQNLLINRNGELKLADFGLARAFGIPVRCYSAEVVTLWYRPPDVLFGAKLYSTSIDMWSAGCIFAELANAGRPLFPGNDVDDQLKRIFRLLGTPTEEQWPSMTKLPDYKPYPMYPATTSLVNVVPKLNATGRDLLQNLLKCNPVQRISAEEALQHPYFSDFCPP
Chain of Epidermal growth factor receptor (Homo sapiens), P00533 [UNDEFINED MUTATION] (P00533 whole entry, looked up, change not shown): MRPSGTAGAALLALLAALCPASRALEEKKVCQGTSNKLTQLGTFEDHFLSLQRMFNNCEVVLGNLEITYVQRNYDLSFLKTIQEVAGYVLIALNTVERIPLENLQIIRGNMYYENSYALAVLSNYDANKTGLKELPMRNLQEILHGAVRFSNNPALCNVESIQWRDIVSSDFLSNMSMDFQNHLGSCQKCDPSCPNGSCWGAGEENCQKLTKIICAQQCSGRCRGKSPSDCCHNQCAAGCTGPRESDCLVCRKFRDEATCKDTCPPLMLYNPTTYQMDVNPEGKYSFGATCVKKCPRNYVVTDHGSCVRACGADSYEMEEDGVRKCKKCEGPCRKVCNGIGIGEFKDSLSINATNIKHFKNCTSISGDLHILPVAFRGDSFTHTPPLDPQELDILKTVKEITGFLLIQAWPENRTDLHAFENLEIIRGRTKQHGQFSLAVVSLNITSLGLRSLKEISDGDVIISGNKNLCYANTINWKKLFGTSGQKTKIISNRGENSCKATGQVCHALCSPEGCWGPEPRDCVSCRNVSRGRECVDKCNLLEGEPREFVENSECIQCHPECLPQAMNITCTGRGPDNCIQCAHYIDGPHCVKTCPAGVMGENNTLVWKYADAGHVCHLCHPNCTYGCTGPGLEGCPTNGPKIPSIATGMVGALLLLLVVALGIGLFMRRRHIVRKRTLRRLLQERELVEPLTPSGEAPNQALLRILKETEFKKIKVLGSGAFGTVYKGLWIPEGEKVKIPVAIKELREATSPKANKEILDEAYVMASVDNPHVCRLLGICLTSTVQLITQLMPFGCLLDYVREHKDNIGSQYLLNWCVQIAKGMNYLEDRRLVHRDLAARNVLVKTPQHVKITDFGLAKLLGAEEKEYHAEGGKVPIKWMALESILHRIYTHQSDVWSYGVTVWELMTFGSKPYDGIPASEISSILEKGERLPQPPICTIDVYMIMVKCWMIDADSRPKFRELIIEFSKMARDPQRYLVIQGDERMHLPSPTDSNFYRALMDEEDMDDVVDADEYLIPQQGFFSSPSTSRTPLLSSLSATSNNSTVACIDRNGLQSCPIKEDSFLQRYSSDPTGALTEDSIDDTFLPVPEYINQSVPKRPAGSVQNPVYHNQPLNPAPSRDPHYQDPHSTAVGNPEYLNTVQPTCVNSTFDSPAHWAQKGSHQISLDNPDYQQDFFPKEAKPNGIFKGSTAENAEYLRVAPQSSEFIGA
Chain of Dual specificity mitogen-activated protein kinase kinase 6 (Homo sapiens) (P52564 whole entry): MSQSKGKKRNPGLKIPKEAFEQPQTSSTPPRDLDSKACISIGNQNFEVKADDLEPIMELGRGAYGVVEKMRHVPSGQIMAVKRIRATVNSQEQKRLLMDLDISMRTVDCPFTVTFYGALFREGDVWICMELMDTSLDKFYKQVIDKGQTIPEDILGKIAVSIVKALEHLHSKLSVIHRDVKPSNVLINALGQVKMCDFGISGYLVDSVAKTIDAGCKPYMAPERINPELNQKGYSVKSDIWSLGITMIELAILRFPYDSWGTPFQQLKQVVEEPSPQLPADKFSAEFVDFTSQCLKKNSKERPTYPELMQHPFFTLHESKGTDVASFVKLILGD

Work on `CNC(=O)c1ccc(Nc2ncc(C(F)(F)F)c(NCc3nccnc3N(C)S(C)(=O)=O)n2)cc1` [DEFACTINIB] yielded a residual activity [1, 38] of 87%, a residual activity [2, 38] of 100% and a residual activity [3, 38] of 100%. For the same compound, the residual activity [4, 38] was 65%, the residual activity [5, 38] was 100% and the residual activity [6, 38] was 100%. For the same compound, the residual activity [7, 38] was 89%, the residual activity [8, 38] was 100% and the residual activity [9, 38] was 61%. The residual activity [10, 38] was 63%, the residual activity [11, 38] was 82% and the residual activity [12, 38] was 73%. For the same compound, the residual activity [13, 38] was 71%, the residual activity [14, 38] was 68% and the residual activity [15, 38] was 97%. For the same compound, the residual activity [16, 38] was 100%, the residual activity [17, 38] was 50% and the residual activity [18, 38] was 81%. For the same compound, the inhibition [19] was -7.85%, the inhibition (Rattus norvegicus) was 31.4% and the residual activity [20, 38] was 80%. For the same compound, the residual activity [21, 38] was 77%, the inhibition [22] was 4.73% and the residual activity [23, 38] was 58%. For the same compound, the residual activity [24, 38] was 86%, the residual activity [25, 38] was 81% and the residual activity [26, 38] was 80%. It also gave a residual activity [27, 38] of 82%, a residual activity [28, 38] of 75% and a residual activity [29, 38] of 77%. For the same compound, the residual activity [30, 38] was 49%, the residual activity [31, 38] was 50% and the residual activity [32, 38] was 100%. It also gave a residual activity [33, 38] of 100%, a residual activity [34, 38] of 65% and a residual activity [35, 38] of 30%. It also gave a residual activity [36, 38] of 100% and a residual activity [37, 38] of 87%.

With `CN(c1ccnc(CNc2nc(Nc3ccc4c(c3)CC(=O)N4)ncc2C(F)(F)F)n1)S(C)(=O)=O` [PF-00911705] the residual activity [1, 39] was 79%, the residual activity [2, 39] was 100% and the residual activity [3, 39] was 76%. The residual activity [4, 39] was 77%, the residual activity [5, 39] was 100% and the residual activity [6, 39] was 72%. For the same compound, the residual activity [7, 39] was 55%, the residual activity [8, 39] was 9.5% and the residual activity [9, 39] was 95%. For the same compound, the residual activity [10, 39] was 69%, the residual activity [11, 39] was 57% and the residual activity [12, 39] was 79%. It also gave a residual activity [13, 39] of 23%, a residual activity [14, 39] of 26% and a residual activity [15, 39] of 73%. The residual activity [16, 39] was 100%, the residual activity [17, 39] was 14% and the residual activity [18, 39] was 79%. The inhibition [19] was 29.5%, the inhibition (Rattus norvegicus) was 62.1% and the residual activity [20, 39] was 93%. It also gave a residual activity [21, 39] of 81%, an inhibition [22] of 4.91% and a residual activity [23, 39] of 52%. For the same compound, the residual activity [24, 39] was 100%, the residual activity [25, 39] was 44% and the residual activity [26, 39] was 27%. For the same compound, the residual activity [27, 39] was 100%, the residual activity [28, 39] was 90% and the residual activity [29, 39] was 83%. It also gave a residual activity [30, 39] of 79%, a residual activity [31, 39] of 97% and a residual activity [32, 39] of 100%. It also gave a residual activity [33, 39] of 84%, a residual activity [34, 39] of 3.6% and a residual activity [35, 39] of 21%. It also gave a residual activity [36, 39] of 74% and a residual activity [37, 39] of 53%.
